System: Plasmodium falciparum
Test: Antimalarial activity against chloroquine-sensitive Plasmodium falciparum NF54
Type: functional, organism-based

Row | Compound | IC50
1 | FC(F)(F)c1cc(-n2cc(CN3CCN(Cc4ccncc4)CC3)nn2)c2cccc(C(F)(F)F)c2n1 | 10.6 µM
2 | FC(F)(F)c1cc(-n2cc(CN3CCN(Cc4c[nH]c5ccccc45)CC3)nn2)c2cccc(C(F)(F)F)c2n1 | 1.3 µM
3 | CC(C)N(Cc1cn(-c2cc(C(F)(F)F)nc3c(C(F)(F)F)cccc23)nn1)C(C)C | 4.8 µM
4 | FC(F)(F)c1cc(-n2cc(CNC3C4CC5CC(C4)CC3C5)nn2)c2cccc(C(F)(F)F)c2n1 (stereo unspecified) | 1 µM
5 | O[C@@H](c1cc(C(F)(F)F)nc2c(C(F)(F)F)cccc12)[C@H]1CCCCN1 [(S,R)-MEFLOQUINE] | 20 µM

Further molecules by falling IC50, results first:

Row | IC50 | Compound
6 | 31.8 µM | FC(F)(F)c1cc(-n2cc(CN3CCN(C4CCCCC4)CC3)nn2)c2cccc(C(F)(F)F)c2n1
7 | 25.6 µM | FC(F)(F)c1cc(-n2cc(CN3CCN(Cc4ccccc4)CC3)nn2)c2cccc(C(F)(F)F)c2n1
8 | 14.1 µM | FC(F)(F)c1cc(-n2cc(CN3CCN(C4C5CC6CC(C5)CC4C6)CC3)nn2)c2cccc(C(F)(F)F)c2n1 (stereo unspecified)
9 | 9.1 µM | FC(F)(F)c1cc(-n2cc(CN(Cc3ccccc3)Cc3ccccc3)nn2)c2cccc(C(F)(F)F)c2n1
10 | 3.26 µM | FC(F)(F)c1cc(-n2cc(CN(C3CCCCC3)C3CCCCC3)nn2)c2cccc(C(F)(F)F)c2n1
11 | 2.8 µM | CC(C)(C)NCc1cn(-c2cc(C(F)(F)F)nc3c(C(F)(F)F)cccc23)nn1

Reference: ChEMBL document CHEMBL3352076, “Synthesis of novel triazole-linked mefloquine derivatives: biological evaluation against Plasmodium falciparum” (Bioorg Med Chem Lett, 2014)
